Experimental data reported in PubChem BioAssay (NCI).
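Cultured in 96-well plates, cells were exposed to test compound for 48 hours across five concentrations. At the TGI there is no net growth.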

Columns and labels:
Assay in all cases: NCI tumour cell line growth inhibition, 48 h
SK-OV-3 ovarian = tested on: SK-OV-3 ovarian
SNB-78 CNS = tested on: SNB-78 CNS
XF 498 CNS = tested on: XF 498 CNS
NCI-H23 lung = tested on: NCI-H23 lung
NCI-H522 lung = tested on: NCI-H522 lung
RPMI-8226 leukemia = tested on: RPMI-8226 leukemia
P388/ADR leukemia = tested on: P388/ADR leukemia
OVCAR-5 ovarian = tested on: OVCAR-5 ovarian
SK-MEL-2 melanoma = tested on: SK-MEL-2 melanoma
DMS 114 small cell lung = tested on: DMS 114 small cell lung
NCI/ADR-RES ovarian = tested on: NCI/ADR-RES ovarian
SW-620 colon = tested on: SW-620 colon
UO-31 renal = tested on: UO-31 renal
SK-MEL-5 melanoma = tested on: SK-MEL-5 melanoma
SF-268 CNS = tested on: SF-268 CNS
OVCAR-4 ovarian = tested on: OVCAR-4 ovarian
OVCAR-8 ovarian = tested on: OVCAR-8 ovarian
HT29 colon = tested on: HT29 colon
M19-MEL melanoma = tested on: M19-MEL melanoma
COLO 205 colon = tested on: COLO 205 colon
UACC-257 melanoma = tested on: UACC-257 melanoma
HCT-116 colon = tested on: HCT-116 colon
KM20L2 colon = tested on: KM20L2 colon
SF-539 CNS = tested on: SF-539 CNS
LOX IMVI melanoma = tested on: LOX IMVI melanoma
HL-60(TB) leukemia = tested on: HL-60(TB) leukemia
MCF7 breast = tested on: MCF7 breast
DMS 273 small cell lung = tested on: DMS 273 small cell lung
NCI-H460 lung = tested on: NCI-H460 lung
KM12 colon = tested on: KM12 colon
UACC-62 melanoma = tested on: UACC-62 melanoma
RXF 393 renal = tested on: RXF 393 renal
HOP-92 NSCLC = tested on: HOP-92 NSCLC
MOLT-4 leukemia = tested on: MOLT-4 leukemia
SNB-75 CNS = tested on: SNB-75 CNS
A498 renal = tested on: A498 renal
SN12C renal = tested on: SN12C renal
K-562 leukemia = tested on: K-562 leukemia
OVCAR-3 ovarian = tested on: OVCAR-3 ovarian
U251 CNS = tested on: U251 CNS
HOP-62 NSCLC = tested on: HOP-62 NSCLC
CCRF-CEM leukemia = tested on: CCRF-CEM leukemia
HOP-18 NSCLC = tested on: HOP-18 NSCLC
DLD-1 colon = tested on: DLD-1 colon
SNB-19 CNS = tested on: SNB-19 CNS
SF-295 CNS = tested on: SF-295 CNS
HCC-2998 colon = tested on: HCC-2998 colon
EKVX NSCLC = tested on: EKVX NSCLC
P388 leukemia = tested on: P388 leukemia
MALME-3M melanoma = tested on: MALME-3M melanoma
IGROV1 ovarian = tested on: IGROV1 ovarian
HCT-15 colon = tested on: HCT-15 colon
A549 NSCLC = tested on: A549 NSCLC
SN12K1 renal = tested on: SN12K1 renal
SK-MEL-28 melanoma = tested on: SK-MEL-28 melanoma
NCI-H226 lung = tested on: NCI-H226 lung
CAKI-1 renal = tested on: CAKI-1 renal
786-0 renal = tested on: 786-0 renal
M14 melanoma = tested on: M14 melanoma
RXF-631 renal = tested on: RXF-631 renal
SR leukemia = tested on: SR leukemia
LXFL 529 NSCLC = tested on: LXFL 529 NSCLC
ACHN renal = tested on: ACHN renal

Compound COc1cc(/C=C/C(=O)O)ccc1C(=O)OCc1ccccc1 has a TGI (SK-OV-3 ovarian) of over 100 µM, a TGI (SNB-78 CNS) of over 100 µM and a TGI (XF 498 CNS) of over 100 µM. For the same compound, the TGI (NCI-H23 lung) was over 100 µM, the TGI (NCI-H522 lung) was over 100 µM and the TGI (RPMI-8226 leukemia) was over 100 µM. It also gave a TGI (P388/ADR leukemia) of over 100 µM, a TGI (OVCAR-5 ovarian) of over 100 µM and a TGI (SK-MEL-2 melanoma) of over 100 µM. It also gave a TGI (DMS 114 small cell lung) of over 100 µM, a TGI (NCI/ADR-RES ovarian) of over 100 µM and a TGI (SW-620 colon) of over 100 µM. It also gave a TGI (UO-31 renal) of over 100 µM, a TGI (SK-MEL-5 melanoma) of over 100 µM and a TGI (SF-268 CNS) of over 100 µM. The TGI (OVCAR-4 ovarian) was over 100 µM, the TGI (OVCAR-8 ovarian) was over 100 µM and the TGI (HT29 colon) was over 100 µM. The TGI (M19-MEL melanoma) was over 100 µM, the TGI (COLO 205 colon) was over 100 µM and the TGI (UACC-257 melanoma) was over 100 µM. For the same compound, the TGI (HCT-116 colon) was over 100 µM, the TGI (KM20L2 colon) was over 100 µM and the TGI (SF-539 CNS) was over 100 µM. The TGI (LOX IMVI melanoma) was over 100 µM, the TGI (HL-60(TB) leukemia) was over 100 µM and the TGI (MCF7 breast) was over 100 µM. For the same compound, the TGI (DMS 273 small cell lung) was over 100 µM, the TGI (NCI-H460 lung) was over 100 µM and the TGI (KM12 colon) was over 100 µM. It also gave a TGI (UACC-62 melanoma) of over 100 µM, a TGI (RXF 393 renal) of over 100 µM and a TGI (HOP-92 NSCLC) of over 100 µM. It also gave a TGI (MOLT-4 leukemia) of over 100 µM, a TGI (SNB-75 CNS) of over 100 µM and a TGI (A498 renal) of over 100 µM. For the same compound, the TGI (SN12C renal) was over 100 µM, the TGI (K-562 leukemia) was over 100 µM and the TGI (OVCAR-3 ovarian) was over 100 µM. For the same compound, the TGI (U251 CNS) was over 100 µM, the TGI (HOP-62 NSCLC) was over 100 µM and the TGI (CCRF-CEM leukemia) was over 100 µM. It also gave a TGI (HOP-18 NSCLC) of over 100 µM, a TGI (DLD-1 colon) of over 100 µM and a TGI (SNB-19 CNS) of over 100 µM. It also gave a TGI (SF-295 CNS) of over 100 µM, a TGI (HCC-2998 colon) of over 100 µM and a TGI (EKVX NSCLC) of over 100 µM. It also gave a TGI (P388 leukemia) of over 100 µM, a TGI (MALME-3M melanoma) of over 100 µM and a TGI (IGROV1 ovarian) of over 100 µM. It also gave a TGI (HCT-15 colon) of over 100 µM, a TGI (A549 NSCLC) of over 100 µM and a TGI (SN12K1 renal) of over 100 µM. It also gave a TGI (SK-MEL-28 melanoma) of over 100 µM and a TGI (NCI-H226 lung) of over 100 µM.

CCOc1ccc2c(c1)[n+]([O-])c(-c1ccccc1Cl)c(N)[n+]2[O-] was tested, and the TGI (SK-OV-3 ovarian) was over 100 µM, the TGI (SNB-78 CNS) was over 100 µM and the TGI (XF 498 CNS) was over 100 µM. For the same compound, the TGI (NCI-H23 lung) was over 100 µM, the TGI (CAKI-1 renal) was over 100 µM and the TGI (786-0 renal) was over 100 µM. For the same compound, the TGI (NCI-H522 lung) was 33.8 µM, the TGI (OVCAR-5 ovarian) was over 100 µM and the TGI (SK-MEL-2 melanoma) was over 100 µM. The TGI (DMS 114 small cell lung) was over 100 µM, the TGI (SW-620 colon) was over 100 µM and the TGI (UO-31 renal) was over 100 µM. It also gave a TGI (SK-MEL-5 melanoma) of over 100 µM, a TGI (SF-268 CNS) of over 100 µM and a TGI (OVCAR-4 ovarian) of over 100 µM. For the same compound, the TGI (OVCAR-8 ovarian) was over 100 µM, the TGI (HT29 colon) was over 100 µM and the TGI (M19-MEL melanoma) was over 100 µM. It also gave a TGI (COLO 205 colon) of over 100 µM, a TGI (UACC-257 melanoma) of over 100 µM and a TGI (HCT-116 colon) of over 100 µM. It also gave a TGI (KM20L2 colon) of over 100 µM, a TGI (SF-539 CNS) of over 100 µM and a TGI (M14 melanoma) of over 100 µM. The TGI (RXF-631 renal) was over 100 µM, the TGI (HL-60(TB) leukemia) was over 100 µM and the TGI (DMS 273 small cell lung) was over 100 µM. It also gave a TGI (NCI-H460 lung) of over 100 µM, a TGI (KM12 colon) of over 100 µM and a TGI (SR leukemia) of over 100 µM. For the same compound, the TGI (RXF 393 renal) was over 100 µM, the TGI (HOP-92 NSCLC) was over 100 µM and the TGI (MOLT-4 leukemia) was over 100 µM. For the same compound, the TGI (LXFL 529 NSCLC) was over 100 µM, the TGI (SNB-75 CNS) was over 100 µM and the TGI (A498 renal) was over 100 µM. For the same compound, the TGI (SN12C renal) was over 100 µM, the TGI (K-562 leukemia) was over 100 µM and the TGI (ACHN renal) was over 100 µM. It also gave a TGI (OVCAR-3 ovarian) of over 100 µM, a TGI (U251 CNS) of over 100 µM and a TGI (HOP-62 NSCLC) of over 100 µM. For the same compound, the TGI (CCRF-CEM leukemia) was over 100 µM, the TGI (HOP-18 NSCLC) was over 100 µM and the TGI (DLD-1 colon) was over 100 µM. It also gave a TGI (SNB-19 CNS) of over 100 µM, a TGI (SF-295 CNS) of over 100 µM and a TGI (EKVX NSCLC) of over 100 µM. The TGI (MALME-3M melanoma) was over 100 µM, the TGI (IGROV1 ovarian) was over 100 µM and the TGI (A549 NSCLC) was over 100 µM. It also gave a TGI (SK-MEL-28 melanoma) of over 100 µM and a TGI (NCI-H226 lung) of over 100 µM.
